Experimental data from patent publication US9815833B2, “Pyridine derivative and medical use thereof” (Chengdu Easton Biopharmaceuticals Co., Ltd., priority 2013, dated 2017).
pIC50: −log10 of the molar value.

Tests used:
[1] = system: APTT of healthy mice; assay: Effects on APTT of healthy mice; assay type: in vivo, KM mice; settings: 5 mg/kg i.g.; for APTT (sec): KM mice, blood collected 1 hour after administration, x ± SD, 10 mice per group; for anticoagulant effect (APTT) compared with positive drug Apixaban: same dose
Source text: Test for four coagulation parameters (including prothrombin time (PT), activated partial thromboplastin time (APTT), thrombin time (TT) and fibrinogen (FIB)) belongs to one of clinical inspection items, and is necessary to thrombotic disease inspections or before the surgery. APTT mainly reflects whether the intrinsic coagulation system status is normal or not. Accordingly, the APTT value is used as a detection indicator in this test of the present invention. The anticoagulant effects of the compounds prepared in the Examples of the present invention were evaluated through the effects thereof on APTT of mice.
(§1) KM mice, weighing 28-30 g, male, 170 mice, provided by Chengdu Dashuo Biological Technology Co., Ltd.; Production facility license: SCXK (Chuan) 2008-24. Animals were housed in the animal room after purchased, adaptively observed for at least three days, and used for assays unless they were qualified for the quarantine standard.
(1) Grouping: mice were grouped and tested according to Table 1, wherein there were 10 mice in each group.
Mice in each group were administrated with the corresponding investigational drugs (mice in control group were administrated with the normal saline). At 1 hour after administration, blood was collected into 0.5 ml vacuum blood-collection tube containing sodium citrate from mice orbit. APTT values of animals were measured after collecting the blood samples.
Excel was used for statistics, experimental data were expressed as (x±SD), and two-sided T-test method was used to statistically compare the experimental data among multiple groups.

[2] = Pharmacokinetic studies on healthy rats; assay type: in vivo; settings: male, rat, po, SD rats, 10 mg/kg i.g., plasma; for AUC(0-t): read-out: AUC0-24
Source text: SD rats were used as test animals, and LC/MS/MS method was applied for measuring the drug concentrations of rats at different time after administrating the compounds of the present invention by gavage, respectively. Pharmacokinetic behaviors of the compounds of the present invention on rats were studied, so as to evaluate the pharmacokinetic characteristics thereof.
as §1, with “SD rats,” for “KM mice,”, “180-220” for “28-30”, “40 rats, 5 rats in each group,” for “170 mice,”
3.1 Grouping: the rats were randomly grouped according to Table 3, with no significant difference among the groups;
Rats in each group was administrated by gavage with the corresponding investigational drugs according to Table 3, at 5 min, 10 min, 20 min, 30 min, 1 h, 2 h, 4 h, 6 h, 8 h, 10 h, 12 h, 24 h after administration, 0.5 ml of blood was taken into the vacuum blood-collection tubes containing heparin sodium, and centrifuged at 5,000 rpm to obtain plasma which was stored at −20° C.
50 μL plasma at each time after administration was taken, then 150 μL of acetonitrile was added, which was subjected to vortex at 1500 rpm for 2 minutes. Solution was centrifuged for 15 minutes (3500 r/min), after that 10 μL supernatant was analyzed by HPLC/MS/MS.
The pharmacokinetic behaviors of the investigational compounds were subjected to compartmental model fitting, and DAS 2.0 software was used to calculate the main pharmacokinetic parameters.

[3] = target: human FXa (Homo sapiens, UniProt P00742); assay: Human FXa inhibition assay (fluorogenic substrate); assay type: biochemical; settings: human FXa 1 nM, substrate 106.7 μM, 30 minutes at room temperature, pH 8.0
Sequence of human FXa (P00742 235-488 limits assumed): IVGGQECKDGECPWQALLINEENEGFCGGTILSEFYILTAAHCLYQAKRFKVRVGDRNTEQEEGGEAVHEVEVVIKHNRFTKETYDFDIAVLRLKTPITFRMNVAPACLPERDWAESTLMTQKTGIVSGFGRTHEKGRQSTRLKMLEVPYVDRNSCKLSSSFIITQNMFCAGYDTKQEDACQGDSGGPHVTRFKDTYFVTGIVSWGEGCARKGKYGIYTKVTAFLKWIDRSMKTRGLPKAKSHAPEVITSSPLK
Sequence of human FXa (P00742 41-179 partner limits assumed): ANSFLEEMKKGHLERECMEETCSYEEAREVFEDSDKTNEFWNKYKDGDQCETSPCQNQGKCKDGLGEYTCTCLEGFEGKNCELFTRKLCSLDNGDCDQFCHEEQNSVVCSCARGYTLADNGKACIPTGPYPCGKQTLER
Protocol: Inhibitory effects of the compounds of the present invention on human FXa were studied, to measure IC50 values thereof on human FXa.
human FXa enzyme (Sekisui Diagnostics, REF 526);
Fluorogenic substrate for the FXa assay (American diagnostic, Product No. 222F);
Buffer: 20 mM Tris-HCl, 200 mM NaCl, 2.5 mM CaCl2, pH 8.0.
(2) 10 mM of each compound was 5-fold diluted serially with buffer to different concentrations (from 40 μM to 0.00002048 μM);
(3) 6 μL of the above diluted solutions of Step (2) were added into each well of 384-well plate to make a final volume of 60 μL, and the final concentration of the compound ranged from 4 μM to […];
(4) 30 μL of human FXa enzyme (2 nM) was added into each well, with a final concentration of 1 nM;
(5) 24 μL human FXa fluorescent enzyme substrate (266.7 μM) was added into each well, with a final concentration of 106.7 μM;
(6) the plate was gently shaked for 5 minutes and then incubated for 30 minutes at room temperature, with avoidance from light;
(7) fluorescence signal was read at 360/440 nm, the inhibition percentage was measured, and 4 Parameter Logistic Model in Xlfit software was employed to calculate IC50.

Compound | APTT (sec) [1] | APTT value compared with the control group ([1]; mice, 1 h after administration, P<0.01) | Cmax [2] | Tmax [2] | half-life [2] | AUC(0-t) [2] | anticoagulant effect (APTT) compared with positive drug Apixaban ([1]; mice, 1 h after administration) | pIC50 [3]
COc1ccc(-n2nc(C(N)=O)c3c2C(=O)N(c2ccc(N4CCCCC4=O)cc2)CC3)cc1 [Apixaban, reference compound] | 21.46 ± 2.32 * * sec | significantly increase | 6850 ng/mL | 0.5 h | 5.2 h | 12900 ng·h/mL |  | 
CSc1ccc(-n2nc(C(N)=O)c3c2C(=O)N(c2ccc(N4CCCCC4=O)cc2)CC3)cc1 [Example 2, 1-(4-methylthiophenyl)-7-oxo-6-[4-(2-oxo-piperidin-1-yl)phenyl]-4,5,6,7-tetrahydro-1H-pyrazolo[3,4-c]pyridine-3-carboxamide] | 24.50 ± 2.50 * * ^Δ sec |  |  |  |  |  | superior to positive drug Apixaban | 
NC(=O)c1nn(-c2ccccc2F)c2c1CCN(c1ccc(N3CCCCC3=O)cc1)C2=O [Example 3, 1-(2-fluorophenyl)-7-oxo-6-[4-(2-oxo-piperidin-1-yl)phenyl]-4,5,6,7-tetrahydro-1H-pyrazolo[3,4-c]pyridine-3-carboxamide] | 27.81 ± 3.42 * * ^ΔΔ sec |  |  |  |  |  | significantly better than positive drug Apixaban | 
COc1ccc(-n2nc(C(N)=O)c3c2C(=O)N(c2ccc(N4CCCCC4=O)cc2)CC3)cc1F [Example 4, 1-(3-fluoro-4-methoxyphenyl)-7-oxo-6-[4-(2-oxo-piperidin-1-yl)phenyl]-4,5,6,7-tetrahydro-1H-pyrazolo[3,4-c]pyridine-3-carboxamide] | 24.78 ± 2.64 * * ^Δ sec |  |  |  |  |  | superior to positive drug Apixaban | 
NC(=O)c1nn(-c2ccccc2F)c2c1CCN(c1ccc(N3CCCC3=O)cc1)C2=O [Example 6, 1-(2-fluorophenyl)-7-oxo-6-[4-(2-oxo-pyrrolidin-1-yl)phenyl]-4,5,6,7-tetrahydro-1H-pyrazolo[3,4-c]pyridine-3-carboxamide] | 27.32 ± 3.12 * * ^ΔΔ sec |  | 7560 ng/mL | 0.3 h | 5.8 h | 19800 ng·h/mL | significantly better than positive drug Apixaban | 
NC(=O)c1nn(-c2cc(F)cc(F)c2)c2c1CCN(c1ccc(N3CCCC3=O)cc1)C2=O [Example 8, 1-(3,5-difluoro-phenyl)-7-oxo-6-[4-(2-oxo-pyrrolidin-1-yl)phenyl]-4,5,6,7-tetrahydro-1H-pyrazolo[3,4-c]pyridine-3-carboxamide] | 27.82 ± 2.71 * * ^ΔΔ sec |  | 7860 ng/mL | 0.3 h | 6.2 h | 20100 ng·h/mL | significantly better than positive drug Apixaban | 
COc1ccc(-n2nc(C(N)=O)c3c2C(=O)N(c2ccc(N4CCCC4=O)cc2C)CC3)cc1 [Example 9, 1-(4-methoxyphenyl)-7-oxo-6-[2-methyl-4-(2-oxo-pyrrolidin-1-yl)phenyl]-4,5,6,7-tetrahydro-1H-pyrazolo[3,4-c]pyridine-3-carboxamide] | 31.29 ± 2.80 * * ^ΔΔ sec |  | 9360 ng/mL | 0.2 h | 6.4 h | 36400 ng·h/mL | significantly better than positive drug Apixaban | 10.11
COc1ccccc1-n1nc(C(N)=O)c2c1C(=O)N(c1ccc(N3CCCC3=O)cc1C)CC2 [Example 10, 1-(2-methoxyphenyl)-7-oxo-6-[2-methyl-4-(2-oxo-pyrrolidin-1-yl)phenyl]-4,5,6,7-tetrahydro-1H-pyrazolo[3,4-c]pyridine-3-carboxamide] | 24.67 ± 2.37 * * ^Δ sec |  |  |  |  |  | superior to positive drug Apixaban | 
Cc1ccc(-n2nc(C(N)=O)c3c2C(=O)N(c2ccc(N4CCCC4=O)cc2C)CC3)c(C)c1 [Example 13, 1-(2,4-dimethyl-phenyl)-7-oxo-6-[2-methyl-4-(2-oxo-pyrrolidin-1-yl)phenyl]-4,5,6,7-tetrahydro-1H-pyrazolo[3,4-c]pyridine-3-carboxamide] | 24.78 ± 2.67 * * ^Δ sec |  |  |  |  |  | superior to positive drug Apixaban | 
COc1ccc(-n2nc(C(N)=O)c3c2C(=O)N(c2ccc(N4CCCC4=O)cc2C)CC3)cc1F [Example 15, 1-(3-fluoro-4-methoxyphenyl)-7-oxo-6-[2-methyl-4-(2-oxo-pyrrolidin-1-yl)phenyl]-4,5,6,7-tetrahydro-1H-pyrazolo[3,4-c]pyridine-3-carboxamide] | 27.97 ± 2.32 * * ^ΔΔ sec |  | 8750 ng/mL | 0.25 h | 6.5 h | 32400 ng·h/mL | significantly better than positive drug Apixaban | 9.91
COc1ccc(-n2nc(C(N)=O)c3c2C(=O)N(c2ccc(N4CCCC4=O)c(C)c2)CC3)cc1 [Example 16, 1-(4-methoxyphenyl)-7-oxo-6-[3-methyl-4-(2-oxo-pyrrolidin-1-yl)phenyl]-4,5,6,7-tetrahydro-1H-pyrazolo[3,4-c]pyridine-3-carboxamide] | 29.89 ± 2.72 * * ^ΔΔ sec |  | 9450 ng/mL | 0.25 h | 6.2 h | 37700 ng·h/mL | significantly better than positive drug Apixaban | 10.64
COc1ccc(-n2nc(C(N)=O)c3c2C(=O)N(c2ccc(N4CCCCC4=O)cc2C)CC3)cc1 [Example 19, 1-(4-methoxyphenyl)-7-oxo-6-[2-methyl-4-(2-oxo-piperidin-1-yl)phenyl]-4,5,6,7-tetrahydro-1H-pyrazolo[3,4-c]pyridine-3-carboxamide] | 26.73 ± 3.12 * * ^ΔΔ sec |  |  |  |  |  | significantly better than positive drug Apixaban | 
Cc1cc(N2CCCCC2=O)ccc1N1CCc2c(C(N)=O)nn(-c3cccc(F)c3)c2C1=O [Example 20, 1-(3-fluorophenyl)-7-oxo-6-[2-methyl-4-(2-oxo-piperidin-1-yl)phenyl]-4,5,6,7-tetrahydro-1H-pyrazolo[3,4-c]pyridine-3-carboxamide] | 24.71 ± 3.20 * * ^Δ sec |  |  |  |  |  | superior to positive drug Apixaban | 
COc1ccc(-n2nc(C(N)=O)c3c2C(=O)N(c2ccc(N4CCCCC4=O)cc2OC)CC3)cc1 [Example 21, 1-(4-methoxyphenyl)-7-oxo-6-[2-methoxy-4-(2-oxo-piperidin-1-yl)phenyl]-4,5,6,7-tetrahydro-1H-pyrazolo[3,4-c]pyridine-3-carboxamide] | 24.65 ± 2.18 * * ^Δ sec |  |  |  |  |  | superior to positive drug Apixaban | 
